Converted amounts (≈) assume the structure as drawn. The source made the active and inactive calls. The rule behind the calls is not given here.
What was measured:
Enterococcus faecium = assay: Antimicrobial activity against vancomycin-resistant Enterococcus faecium VanA by micro broth dilution or agar based method; assay type: functional
Staphylococcus aureus [1] = assay: Antimicrobial activity against methicillin-resistant Staphylococcus aureus OIT971 by micro broth dilution or agar based method; assay type: functional, organism-based
Acinetobacter baumannii = assay: Antimicrobial activity against Acinetobacter baumannii IID876 by micro broth dilution or agar based method; assay type: functional
Pseudomonas aeruginosa = assay: Antimicrobial activity against Pseudomonas aeruginosa PAO1 by micro broth dilution or agar based method; assay type: functional
Escherichia coli = assay: Antimicrobial activity against Escherichia coli ATCC 25922 by micro broth dilution or agar based method; assay type: functional
Staphylococcus aureus [2] = assay: Antimicrobial activity against Staphylococcus aureus Smith by micro broth dilution or agar based method; assay type: functional
Streptococcus pneumoniae = assay: Antimicrobial activity against Streptococcus pneumoniae IID553 by micro broth dilution or agar based method; assay type: functional

| Compound | MIC (Enterococcus faecium) [µg/mL] | growth inhibition (GI) (Staphylococcus aureus [1]) | MIC (Acinetobacter baumannii) [µg/mL] | MIC (Pseudomonas aeruginosa) [µg/mL] | MIC (Escherichia coli) [µg/mL] | MIC (Staphylococcus aureus [2]) [µg/mL] | MIC (Streptococcus pneumoniae) [µg/mL] |
| --- | --- | --- | --- | --- | --- | --- | --- |
| O=C1COc2ccc(CNC34CCC(CCc5c(F)cnc6ccc(OC(F)F)nc56)(CC3)OC4)nc2N1 | 1 (≈ 1.89 µM) | Active | 0.5 (≈ 0.944 µM) | 4 (≈ 7.55 µM) | 2 (≈ 3.78 µM) | 0.016 (≈ 0.0302 µM) | 0.125 (≈ 0.236 µM) |
| O=C1COc2ccc(CNC34CCC(CCc5c(F)cnc6ccc(OC7CC(O)CC(O)C7)nc56)(CC3)OC4)nc2N1 (stereo not drawn) | 16 (≈ 27 µM) | Active | 32 (≈ 53.9 µM) | 64 (≈ 108 µM) | 64 (≈ 108 µM) | 0.5 (≈ 0.842 µM) | 0.5 (≈ 0.842 µM) |
| O=C1COc2ccc(CNC34CCC(CCc5c(F)cnc6ccc(OCC7(O)COC7)nc56)(CC3)OC4)nc2N1 | 4 (≈ 7.07 µM) | Active | 4 (≈ 7.07 µM) | 32 (≈ 56.6 µM) | 16 (≈ 28.3 µM) | 0.125 (≈ 0.221 µM) | 0.5 (≈ 0.884 µM) |
| O=C1COc2ccc(CNC34CCC(CCc5c(F)cnc6ccc(OCCc7cc(=O)c(O)c[nH]7)nc56)(CC3)OC4)nc2N1 | 32 (≈ 51.9 µM) | Active | 32 (≈ 51.9 µM) | 32 (≈ 51.9 µM) | 32 (≈ 51.9 µM) | 16 (≈ 25.9 µM) | 8 (≈ 13 µM) |
| CC(C)CCOc1ccc2ncc(F)c(CCC34CCC(NCc5ccc6c(n5)NC(=O)CO6)(CC3)CO4)c2n1 | 8 (≈ 14.6 µM) | Active | 16 (≈ 29.1 µM) | 16 (≈ 29.1 µM) | 16 (≈ 29.1 µM) | 0.125 (≈ 0.227 µM) | 1 (≈ 1.82 µM) |
| CCOC(=O)CCCOc1ccc2ncc(F)c(CCC34CCC(NCc5ccc6c(n5)NC(=O)CO6)(CC3)CO4)c2n1 | 2 (≈ 3.37 µM) | Active | 2 (≈ 3.37 µM) | 8 (≈ 13.5 µM) | 8 (≈ 13.5 µM) | 0.031 (≈ 0.0522 µM) | 0.125 (≈ 0.211 µM) |
| NCCCOc1ccc2ncc(F)c(CCC34CCC(NCc5ccc6c(n5)NC(=O)CO6)(CC3)CO4)c2n1 | 4 (≈ 7.45 µM) |  | 2 (≈ 3.73 µM) | 8 (≈ 14.9 µM) | 2 (≈ 3.73 µM) | 0.25 (≈ 0.466 µM) | 0.5 (≈ 0.932 µM) |
| O=C1COc2ccc(CNC34CCC(CCc5c(F)cnc6ccc(OCCCCO)nc56)(CC3)OC4)nc2N1 | 2 (≈ 3.63 µM) | Active | 2 (≈ 3.63 µM) | 16 (≈ 29 µM) | 8 (≈ 14.5 µM) | 0.031 (≈ 0.0562 µM) | 0.5 (≈ 0.906 µM) |
| NCCOc1ccc2ncc(F)c(CCC34CCC(NCc5ccc6c(n5)NC(=O)CO6)(CC3)CO4)c2n1 | 4 (≈ 7.65 µM) | Active | 1 (≈ 1.91 µM) | 4 (≈ 7.65 µM) | 1 (≈ 1.91 µM) | 0.25 (≈ 0.478 µM) | 0.5 (≈ 0.957 µM) |
| COCCOc1ccc2ncc(F)c(CCC34CCC(NCc5ccc6c(n5)NC(=O)CO6)(CC3)CO4)c2n1 [listing 1 of 2 here] |  | Active |  |  |  |  |  |
| O=C1COc2ccc(CNC34CCC(CCc5c(F)cnc6ccc(OCCCO)nc56)(CC3)OC4)nc2N1 [listing 1 of 2 here] | 1 (≈ 1.86 µM) |  | 2 (≈ 3.72 µM) | 16 (≈ 29.8 µM) | 4 (≈ 7.44 µM) | 0.016 (≈ 0.0298 µM) | 0.25 (≈ 0.465 µM) |
| O=C1COc2ccc(CNC34CCC(CCc5c(F)cnc6ccc(OCCCCCO)nc56)(CC3)OC4)nc2N1 [listing 1 of 2 here] |  | Active |  |  |  |  |  |
| O=C1COc2ccc(CNC34CCC(CCc5c(F)cnc6ccc(OCCCCCO)nc56)(CC3)OC4)nc2N1 [listing 2 of 2 here] | 4 (≈ 7.07 µM) |  | 8 (≈ 14.1 µM) | 8 (≈ 14.1 µM) | 8 (≈ 14.1 µM) | 0.063 (≈ 0.111 µM) | 1 (≈ 1.77 µM) |
| O=C1COc2ccc(CNC34CCC(CCc5c(F)cnc6ccc(OCCO)nc56)(CC3)OC4)nc2N1 [listing 1 of 2 here] |  | Active |  |  |  |  |  |
| O=C1COc2ccc(CNC34CCC([C@@H](O)Cc5c(F)cnc6ccc(OCCCO)nc56)(CC3)OC4)nc2N1 [listing 1 of 2 here] | 4 (≈ 7.23 µM) |  | 4 (≈ 7.23 µM) | 16 (≈ 28.9 µM) | 16 (≈ 28.9 µM) | 0.125 (≈ 0.226 µM) | 0.5 (≈ 0.903 µM) |
| COc1ccc2ncc(F)c(C[C@H](O)C34CCC(NCc5ccc6c(n5)NC(=O)CO6)(CC3)CO4)c2n1 |  | Active |  |  |  |  |  |
| O=C1COc2ccc(CNC34CCC(CCc5c(F)cnc6ccc(OCCO)nc56)(CC3)OC4)nc2N1 [listing 2 of 2 here] | 1 (≈ 1.91 µM) |  | 1 (≈ 1.91 µM) | 8 (≈ 15.3 µM) | 4 (≈ 7.64 µM) | 0.031 (≈ 0.0592 µM) | 0.25 (≈ 0.477 µM) |
| O=C1COc2ccc(CNC34CCC(CCc5c(F)cnc6ccc(OCCCO)nc56)(CC3)OC4)nc2N1 [listing 2 of 2 here] |  | Active |  |  |  |  |  |
| O=C1COc2ccc(CNC34CCC([C@@H](O)Cc5c(F)cnc6ccc(OCCCO)nc56)(CC3)OC4)nc2N1 [listing 2 of 2 here] |  | Active |  |  |  |  |  |
| COCCOc1ccc2ncc(F)c(CCC34CCC(NCc5ccc6c(n5)NC(=O)CO6)(CC3)CO4)c2n1 [listing 2 of 2 here] | 4 (≈ 7.44 µM) |  | 4 (≈ 7.44 µM) | 16 (≈ 29.8 µM) | 8 (≈ 14.9 µM) | 0.063 (≈ 0.117 µM) | 1 (≈ 1.86 µM) |
